# In US12492169B2, “Aminopyridine compound and application thereof” (priority 2020, dated 2025):
# Experiments:
# in vivo = assay: in vivo; parameters: species or system crab-eating macaques; conditions: monkey
# Description: (§1) Experimental Purpose: To evaluate the druggability of the compounds by measuring its pharmacokinetic properties in different animal species.
# (§2) Experimental materials: CD-1 mice, Sprague-Dawley strain rats, beagle dogs, and crab-eating macaques.
# (§3) Drug preparation: An appropriate amount of sample was weighed and then prepared into a clear or suspended solution.
# (§4) Experimental procedure: The animal pharmacokinetic characteristics after intravenous injection and oral administration of the compound were tested using a standard protocol. The candidate compound was prepared as a clear solution (for intravenous injection) or a homogeneous suspension (for oral administration) during the experiment and administered to the animals as a single dose. Whole blood samples were collected at 0.083, 0.25, 0.5, 1, 2, 4, 8, and 24 hours, centrifuged at 3200 g for 10 minutes to separate the supernatant to obtain plasma samples. The plasma concentration was quantitatively analyzed by LC-MS/MS analysis method and pharmacokinetic parameters were calculated, such as peak concentration, peak time, clearance rate, half-life, area under the drug-time curve, etc.
# [1] = Pharmacokinetic evaluation in dogs (IV, PO); type: in vivo, beagle dogs; conditions: beagle, plasma, Dog
# Description: as §1, §2, §3, §4
# [2] = Pharmacokinetic evaluation in mice (IV); type: in vivo, CD-1 mice; conditions: CD-1, plasma, 1 mg/kg, Mouse, 1 mpk
# Description: as §1, §2, §3, §4
# [3] = crab-eating macaque (cynomolgus), iv, 0.4 mg/kg
# [4] = crab-eating macaque (cynomolgus), po, 10 mg/kg
structure (smiles),measurement,setting,value
Nc1ccc(C#CCc2ccc(COc3ccccn3)cc2)cn1 [WX004],AUC,in vivo; [3],5 µM·h
same,Vd,in vivo; [3],4.4 L/kg
same,clearance,in vivo; [3],4.3 mL/min/kg
same,Cmax,in vivo; [4],9 µM
same,Tmax,in vivo; [4],4 h
same,AUC,"in vivo; crab-eating macaque, po, 10 mg/kg",72 µM·h
same,half-life,"in vivo; iv, 0.4 mg/kg",3.5 h
same,bioavailability,"in vivo; po, 10 mg/kg",60%
same,AUC,"[1]; 1 mg/kg, IV, 1 mpk",2.8 µM·h
same,Vd,"[1]; 1 mg/kg, IV, 1 mpk",2.8 L/kg
same,clearance,"[1]; 1 mg/kg, IV, 1 mpk",21 mL/min/kg
same,half-life,"[1]; 1 mg/kg, IV, 1 mpk",2.5 h
same,AUC,"[1]; 10 mg/kg, PO, 10 mpk",14 µM·h
same,Cmax,"[1]; 10 mg/kg, PO, 10 mpk",6.5 µM
same,Tmax,"[1]; 10 mg/kg, PO, 10 mpk",0.75 h
same,bioavailability,"[1]; 10 mg/kg, PO, 10 mpk",51%
same,AUC,[2],2 µM·h
same,Vd,[2],5.2 L/kg
same,clearance,[2],28 mL/min/kg
same,half-life,[2],2.1 h
